Experimental data as given in patent publication US6093838A, “Amines substituted with a dihydro-benzofuranyl or with a dihydro-isobenzofuranyl group, an aryl or heteroaryl group and an alkyl group, having retinoid-like biological activity” (Allergan Sales, Inc., priority 1999, dated 2000).
Like-named read-outs stand apart in the source and are kept apart here.

What was measured:
[1] = target: T1, RXRα (Homo sapiens, UniProt P19793); assay: holoreceptor transactivation assay, RXRα; type: cell-based; settings: for EC50: holoreceptor transactivation, RXRα, read-out: RXR Trans. EC50 α; for Emax: relative to 10^-6 M cyclopropyl penta-2,4-dienoic acid reference (RXRs), read-out: % efficacy (RXRα transactivation)
T1 construct: expressed in transfected cells
T1 sequence (P19793 1-462): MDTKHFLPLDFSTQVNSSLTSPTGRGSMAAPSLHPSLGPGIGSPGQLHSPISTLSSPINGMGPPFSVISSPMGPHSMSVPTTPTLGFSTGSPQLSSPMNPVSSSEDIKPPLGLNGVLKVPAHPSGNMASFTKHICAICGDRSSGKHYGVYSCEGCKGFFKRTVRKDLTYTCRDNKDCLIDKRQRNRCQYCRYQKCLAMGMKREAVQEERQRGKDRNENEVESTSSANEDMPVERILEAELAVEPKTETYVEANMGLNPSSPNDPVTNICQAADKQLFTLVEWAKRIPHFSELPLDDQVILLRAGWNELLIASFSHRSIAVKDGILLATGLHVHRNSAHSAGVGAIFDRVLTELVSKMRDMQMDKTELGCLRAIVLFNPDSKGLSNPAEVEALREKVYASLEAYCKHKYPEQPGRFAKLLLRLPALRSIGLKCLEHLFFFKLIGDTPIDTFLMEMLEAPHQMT
From the text: (§1) Other assays described below, measure the ability of the compounds of the present invention to bind to, and/or activate various retinoid receptor subtypes. When in these assays a compound binds to a given receptor subtype and activates the transcription of a reporter gene through that subtype, then the compound is considered an agonist of that receptor subtype. […] In the below described assays the ability of the compounds to bind to RARα, RARβ, RARγ, RXRα, RXRβ and RXRγ receptors, and the ability or inability of the compounds to activate transcription of a reporter gene through these receptor subtypes can be tested. […] However, some of the compounds of the invention may behave as retinoid antagonists or partial antagonists and/or as inverse agonists. Because of the complex distribution of the different retinoid receptors in various organs of the mammalian body partial agonists and partial antagonists and compounds which have the characteristics of both may lend themselves to particularly useful therapeutic applications and may avoid serious side effects of conventional retinoid drugs.
(§2) A holoreceptor transactivation assay and a ligand binding assay which measure the antagonist/agonist like activity of the compounds of the invention, or their ability to bind to the several retinoid receptor subtypes, respectively, are described in published PCT Application No. WO WO93/11755 (particularly on pages 30-33 and 37-41) published on Jun. 24, 1993, the specification of which is also incorporated herein by reference. A detailed experimental procedure for holoreceptor transactivations has been described by Heyman et al. Cell 68, 397-406, (1992); Allegretto et al. J. Biol. Chem. 268, 26625-26633, and Mangelsdorf et al. The Retinoids: Biology, Chemistry and Medicine, pp 319-349, Raven Press Ltd., New York, which are expressly incorporated herein by reference. The results obtained in this assay are expressed in EC50 numbers, as they are also in the chimeric receptor transactivation assay. The results of ligand binding assay are expressed in Kd numbers. (See Cheng et al. Biochemical Pharmacology Vol. 22 pp 3099-3108, expressly incorporated herein by reference.)
(§3) Table 1 discloses the activity of certain exemplary compounds of the invention in the above-described chimeric receptor transactivation assay, holoreceptor transactivation assay and a ligand binding assays. Particularly, the transactivation data pertaining to RAR receptors were obtained in the chimeric assay, and the data pertaining to transactivation of RXR receptors were obtained in the holoreceptor transactivation assay.

[2] = target: T2, RARα (Homo sapiens, UniProt P10276); assay: ligand binding assay, RARα
T2 sequence (P10276 1-462): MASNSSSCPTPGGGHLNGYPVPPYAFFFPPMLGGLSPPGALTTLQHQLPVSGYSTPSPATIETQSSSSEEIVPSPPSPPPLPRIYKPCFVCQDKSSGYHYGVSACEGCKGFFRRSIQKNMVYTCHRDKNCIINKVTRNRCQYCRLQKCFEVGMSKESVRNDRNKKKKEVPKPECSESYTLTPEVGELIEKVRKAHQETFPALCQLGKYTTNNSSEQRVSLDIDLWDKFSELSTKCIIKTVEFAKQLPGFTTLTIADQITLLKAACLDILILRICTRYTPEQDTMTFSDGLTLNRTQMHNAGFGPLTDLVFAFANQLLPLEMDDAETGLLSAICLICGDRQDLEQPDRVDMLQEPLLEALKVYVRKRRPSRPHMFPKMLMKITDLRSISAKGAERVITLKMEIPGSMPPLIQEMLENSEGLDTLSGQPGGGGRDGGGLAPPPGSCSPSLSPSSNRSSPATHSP
From the text: as §1, §2, §3

[3] = target: T3, RARβ (Homo sapiens, UniProt P10826); assay: ligand binding assay, RARβ; settings: read-out: RAR Bind. Ki β
T3 sequence (P10826 1-448 isoform P10826-2): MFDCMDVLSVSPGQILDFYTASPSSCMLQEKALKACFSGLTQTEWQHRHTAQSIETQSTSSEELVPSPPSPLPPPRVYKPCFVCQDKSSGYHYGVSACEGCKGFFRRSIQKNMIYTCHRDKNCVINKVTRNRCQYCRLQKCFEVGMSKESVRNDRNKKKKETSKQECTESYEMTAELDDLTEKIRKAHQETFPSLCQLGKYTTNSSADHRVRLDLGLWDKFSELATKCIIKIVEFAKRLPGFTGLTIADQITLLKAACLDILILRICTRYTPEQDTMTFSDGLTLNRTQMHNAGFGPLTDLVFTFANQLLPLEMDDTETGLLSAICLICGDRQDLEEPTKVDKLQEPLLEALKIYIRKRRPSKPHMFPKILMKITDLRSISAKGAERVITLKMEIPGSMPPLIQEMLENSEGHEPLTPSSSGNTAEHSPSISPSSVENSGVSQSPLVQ
From the text: as §1, §2, §3

[4] = target: T4, RARγ (Homo sapiens, UniProt P13631); assay: ligand binding assay, RARγ; settings: read-out: RAR Bind. Ki γ
T4 sequence (P13631 1-454): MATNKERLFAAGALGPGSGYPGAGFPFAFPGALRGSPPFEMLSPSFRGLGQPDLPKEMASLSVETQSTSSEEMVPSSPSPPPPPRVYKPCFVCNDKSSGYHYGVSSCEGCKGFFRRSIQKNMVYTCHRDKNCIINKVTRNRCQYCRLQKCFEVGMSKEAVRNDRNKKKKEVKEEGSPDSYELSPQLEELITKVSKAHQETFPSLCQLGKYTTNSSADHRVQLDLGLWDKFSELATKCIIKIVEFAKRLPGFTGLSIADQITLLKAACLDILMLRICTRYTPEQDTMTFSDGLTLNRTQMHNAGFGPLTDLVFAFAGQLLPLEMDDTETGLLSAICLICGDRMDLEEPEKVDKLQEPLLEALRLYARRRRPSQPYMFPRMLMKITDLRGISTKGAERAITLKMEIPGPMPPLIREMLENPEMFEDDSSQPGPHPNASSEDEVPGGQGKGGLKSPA
From the text: as §1, §2, §3

[5] = target: RXRγ; assay: ligand binding assay, RXRγ; settings: read-out: RXR Bind Ki γ
From the text: as §1, §2, §3

Row | Compound | EC50 [1] [nM] | Emax [1] [%] | Ki ([2]; read-out: RAR Bind. Ki α) [nM] | Ki [3] [nM] | Ki [4] [nM] | Ki [5] [nM] | Ki ([2]; heading: RAR Bind. Ki α) [nM]
1 | CCN(c1ccc(C(=O)O)cc1)c1cc(C)c2c(c1)C(C)(C)CO2 [Compound 27, 4-[Ethyl-(3,3,7-trimethyl-2,3-dihydro-benzofuran-5-yl)-amino]-benzoic acid] | 1000 | 80 | 30000 | > 30000 | > 30000 | > 100000 | –
2 | CCc1cc(N(CC)c2ccc(C(=O)O)cc2)cc2c1OCC2(C)C [Compound 29, 4-[Ethyl-(3,3-dimethyl-7-ethyl-2,3-dihydro-benzofuran-5-yl)-amino]-benzoic acid] | 139 | 117 | > 10000 | > 10000 | 8400 | > 1000 | –
3 | CC(C)c1cc(N(c2ccc(C(=O)O)cc2)C(C)C)cc2c1OCC2(C)C [Compound 43] | 16 | 66 | > 10000 | > 10000 | 2600 | – | –
4 | CCCN(c1ccc(C(=O)O)cc1)c1ccc2c(c1)C(C)(C)OC2(C)C [Compound 84, 4-[n-Propyl-(1,1,3,3-tetramethyl-1,3-dihydro-isobenzofuran-5-yl)-amino]-benzoic acid] | 40 | 121 | – | > 10000 | > 10000 | > 1000 | > 10000
5 | CCc1cc(N(c2ccc(C(=O)O)cc2)C(C)C)cc2c1OCC2(C)C [Compound 42, 4-[Isopropyl-(3,3-dimethyl-7-ethyl-2,3-dihydro-benzofuran-5-yl)-amino]-benzoic acid] | 203 | 100 | > 10000 | > 10000 | 4900 | > 1000 | –
6 | CCN(c1ccc(C(=O)O)cc1)c1cc(C(C)C)c2c(c1)C(C)(C)CO2 [Compound 31, 4-[Ethyl-(3,3-dimethyl-7-isopropyl-2,3-dihydro-benzofuran-5-yl)-amino]-benzoic acid] | 74 | 116 | 25000 | 29000 | 4000 | 4100 | –
7 | CC(C)N(c1ccc(C(=O)O)cc1)c1cc(C(C)(C)C)c2c(c1)C(C)(C)CO2 [Compound 44, 4-[Isopropyl-(7-t-butyl-3,3-dimethyl-2,3-dihydro-benzofuran-5-yl)-amino]-benzoic acid] | 22 | 73 | > 1000 | > 1000 | 1600 | 344 | –
8 | CCN(c1ccc(C(=O)O)cc1)c1ccc2c(c1)C(C)(C)OC2(C)C [Compound 83, 4-[Ethyl-(1,1,3,3-tetramethyl-1,3-dihydro-isobenzofuran-5-yl)-amino]-benzoic acid] | 39 | 107 | > 10000 | > 10000 | > 10000 | > 1000 | –
9 | CC(C)c1cc(N(C)c2ccc(C(=O)O)cc2)cc2c1OCC2(C)C [Compound 30, 4-[Methyl-(3,3-dimethyl-7-isopropyl-2,3-dihydro-benzofuran-5-yl)-amino]-benzoic acid] | 1000 | 75 | 16000 | > 30000 | 3300 | > 10000 | –
10 | CCN(c1ccc(C(=O)O)cc1)c1cc(C(C)(C)C)c2c(c1)C(C)(C)CO2 [Compound 32, 4-[Ethyl-(7-t-butyl-3,3-dimethyl-2,3-dihydro-benzofuran-5-yl)-amino]-benzoic acid] | 98 | 103 | > 1000 | > 1000 | 2000 | 672 | –
11 | CC(C)N(c1ccc(C(=O)O)cc1)c1ccc2c(c1)C(C)(C)OC2(C)C [Compound 87, 4-[i-Propyl-(1,1,3,3-tetramethyl-1,3-dihydro-isobenzofuran-5-yl)-amino]-benzoic acid] | 57 | 115 | > 10000 | > 10000 | > 10000 | 2100 | –
12 | CCCCN(c1ccc(C(=O)O)cc1)c1ccc2c(c1)C(C)(C)OC2(C)C [Compound 85, 4-[n-Butyl-(1,1,3,3-tetramethyl-1,3-dihydro-isobenzofuran-5-yl)-amino]-benzoic acid] | 161 | 122 | > 10000 | > 10000 | > 10000 | > 1000 | –
13 | Cc1c(N(c2ccc(C(=O)O)cc2)C(C)C)cc2c(c1C(C)(C)C)OCC2(C)C [Compound 73, 4-[Isopropyl-(7-t-butyl-3,3,6-trimethyl-2,3-dihydro-benzofuran-5-yl)-amino]-benzoic acid] | 10 | 92 | 12000 | > 10000 | 2700 | 236 | –
